Measured values published in PubChem BioAssay AID192 (DTP/NCI, 2004).
Values joined by “and” are separate entries in the source; they are usually repeats but may differ in a detail not shown here. Equal values may be shown once. Inconclusive results and toxic doses are left out. How the source made its calls: active means survival T/C of 150% or more; inactive means T/C below 125% in these data.

Tested on: BDF1 mice, B16 melanoma ip, median survival T/C
Test: NCI In Vivo Anticancer Drug Screen. Data for tumor model B16 Melanoma (intraperitoneal) in B6D2F1 (BDF1) mice
Details: endpoint: median survival time, higher = longer survival
How it was run: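 Survival or tumor size is measured after treatment of tumor-bearing mice and normalised to the vehicle-treated control group.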

[1] = dose: 25.0 mg/kg/injection, schedule: Q01DX009 (ip), vehicle: saline
[2] = dose: 100.0 mg/kg/injection, schedule: Q01DX009 (ip), vehicle: saline

Measured: T/C

COc1cc2cc3c4cc(OC)c(OC)cc4cc[n+]3c(C)c2cc1OC (tested in a mixture with another compound)
inactive: dose: 6.25 mg/kg/injection, schedule: Q01DX009 (ip), vehicle: saline 106 % of control | dose: 6.25 mg/kg/injection, schedule: Q04DX003 (ip), vehicle: saline with Tween-80 88 % of control | dose: 6.25 mg/kg/injection, schedule: Q04DX003 (ip), vehicle: saline 107 % of control | dose: 8.0 mg/kg/injection, schedule: Q01DX009 (ip), vehicle: Klucel (hydroxypropylcellulose) (HPC) 90 % of control and 91 % of control | dose: 8.0 mg/kg/injection, schedule: Q01DX009 (ip), vehicle: clinical formulation 100 % of control and 109 % of control | dose: 8.0 mg/kg/injection, schedule: Q01DX009 (ip), vehicle: other 99 % of control and 107 % of control | dose: 8.0 mg/kg/injection, schedule: Q01DX009 (ip), vehicle: water 87 % of control | dose: 12.5 mg/kg/injection, schedule: Q01DX009 (ip), vehicle: saline 93 % of control | dose: 12.5 mg/kg/injection, schedule: Q01DX009 (ip), vehicle: water 95 % of control | dose: 12.5 mg/kg/injection, schedule: Q04DX003 (ip), vehicle: saline with Tween-80 100 % of control | dose: 12.5 mg/kg/injection, schedule: Q04DX003 (ip), vehicle: saline 105 % of control | dose: 16.0 mg/kg/injection, schedule: Q01DX009 (ip), vehicle: Klucel (hydroxypropylcellulose) (HPC) 91 % of control and 92 % of control and 96 % of control | dose: 16.0 mg/kg/injection, schedule: Q01DX009 (ip), vehicle: clinical formulation 94 % of control and 106 % of control | dose: 16.0 mg/kg/injection, schedule: Q01DX009 (ip), vehicle: other 97 % of control and 111 % of control and 123 % of control | dose: 16.0 mg/kg/injection, schedule: Q01DX009 (ip), vehicle: water 96 % of control and 106 % of control | [1] 87 % of control | dose: 25.0 mg/kg/injection, schedule: Q01DX009 (ip), vehicle: water 109 % of control | dose: 25.0 mg/kg/injection, schedule: Q04DX003 (ip), vehicle: saline with Tween-80 102 % of control | dose: 25.0 mg/kg/injection, schedule: Q04DX003 (ip), vehicle: saline 102 % of control | dose: 32.0 mg/kg/injection, schedule: Q01DX009 (ip), vehicle: Klucel (hydroxypropylcellulose) (HPC) 90 % of control and 93 % of control and 95 % of control | dose: 32.0 mg/kg/injection, schedule: Q01DX009 (ip), vehicle: clinical formulation 96 % of control and 105 % of control | dose: 32.0 mg/kg/injection, schedule: Q01DX009 (ip), vehicle: other 103 % of control and 105 % of control (2×) | dose: 32.0 mg/kg/injection, schedule: Q01DX009 (ip), vehicle: water 94 % of control and 111 % of control | dose: 33.0 mg/kg/injection, schedule: Q01DX009 (ip), vehicle: saline with Tween-80 105 % of control | dose: 50.0 mg/kg/injection, schedule: Q01DX009 (ip), vehicle: saline with Tween-80 110 % of control | dose: 50.0 mg/kg/injection, schedule: Q01DX009 (ip), vehicle: water 93 % of control | dose: 50.0 mg/kg/injection, schedule: Q04DX003 (ip), vehicle: saline with Tween-80 97 % of control | dose: 50.0 mg/kg/injection, schedule: Q04DX003 (ip), vehicle: saline 100 % of control | dose: 64.0 mg/kg/injection, schedule: Q01DX009 (ip), vehicle: Klucel (hydroxypropylcellulose) (HPC) 89 % of control and 91 % of control and 94 % of control | dose: 64.0 mg/kg/injection, schedule: Q01DX009 (ip), vehicle: clinical formulation 104 % of control | dose: 64.0 mg/kg/injection, schedule: Q01DX009 (ip), vehicle: other 100 % of control and 104 % of control | dose: 75.0 mg/kg/injection, schedule: Q01DX009 (ip), vehicle: saline with Tween-80 101 % of control | [2] 106 % of control | dose: 100.0 mg/kg/injection, schedule: Q01DX009 (ip), vehicle: water 91 % of control | dose: 100.0 mg/kg/injection, schedule: Q04DX003 (ip), vehicle: saline 94 % of control | dose: 128.0 mg/kg/injection, schedule: Q01DX009 (ip), vehicle: Klucel (hydroxypropylcellulose) (HPC) 91 % of control and 93 % of control | dose: 200.0 mg/kg/injection, schedule: Q04DX003 (ip), vehicle: saline with Tween-80 88 % of control | dose: 200.0 mg/kg/injection, schedule: Q04DX003 (ip), vehicle: saline 100 % of control

C[CH2][Pb]([CH2]C)([CH2]C)[n]1cnc2ccccc21
inactive: dose: 0.75 mg/kg/injection, schedule: Q01DX009 (ip), vehicle: Klucel (hydroxypropylcellulose) (HPC) 95 % of control | dose: 1.5 mg/kg/injection, schedule: Q01DX009 (ip), vehicle: Klucel (hydroxypropylcellulose) (HPC) 96 % of control

O=C(O)c1cc(O)ccc1O
inactive: [1] 93 % of control | dose: 50.0 mg/kg/injection, schedule: Q01DX009 (ip), vehicle: saline 100 % of control | [2] 102 % of control | dose: 200.0 mg/kg/injection, schedule: Q01DX009 (ip), vehicle: saline 98 % of control
